Eight compounds from patent publication US10004701B2, “Methods and compositions for treating infection” (UNIVERSITY OF ROCHESTER, priority 2012, dated 2018) can be followed below.

What all share (experiment): AK assay 384-well format, Prestwick library screening
One assay relates to E. coli. It counts as cell-based, Escherichia coli. As to conditions: 50 μM final drug concentration; for fold induction at 50 µM: Escherichia coli, 3 h.
The next assay relates to E. cloacae. Type of assay: cell-based, Enterobacter cloacae. As to conditions: 50 μM final drug concentration; for fold induction at 50 µM: Enterobacter cloacae, 3 h.
The next assay relates to P. aeruginosa. Type of assay: cell-based, Pseudomonas aeruginosa. The note with it: 50 μM final drug concentration; for fold induction at 50 µM: Pseudomonas aeruginosa, 3 h.
Assay [1] deals with S. aureus strain USA300-0114. Type of assay: cell-based, Staphylococcus aureus. The note with it: 50 μM final drug concentration; for fold induction at 50 µM: Staphylococcus aureus, USA300, 3 h.
Assay [2] deals with A. baumannii strain 98-37-09. Type of assay: cell-based, Acinetobacter baumannii. The note with it: 50 μM final drug concentration; for fold induction at 50 µM: Acinetobacter baumannii, 983709, 3 h.
The test system of the next assay is E. faecium. It counts as cell-based, Enterococcus faecium. As to conditions: 50 μM final drug concentration; for fold induction at 50 µM: Enterococcus faecium, 3 h.
Another assay has as its system K. pneumoniae. Type of assay: cell-based, Klebsiella pneumoniae. The note with it: 50 μM final drug concentration; for fold induction at 50 µM: Klebsiella pneumoniae, 3 h.
Where [3] appears, read: planktonic, cutoff for positive 3-fold increase, read-out: AK-based Prestwick Library Screening Results, E. coli (fold increase in extracellular AK activity).
Where [4] appears, read: planktonic, cutoff for positive 3-fold increase, read-out: AK-based Prestwick Library Screening Results, E. cloacae (fold increase in extracellular AK activity).
The mark [5] stands for this setting: planktonic, cutoff for positive 3-fold increase, read-out: AK-based Prestwick Library Screening Results, P. aeruginosa (fold increase in extracellular AK activity).
Where [6] appears, read: planktonic, cutoff for positive 3-fold increase, read-out: AK-based Prestwick Library Screening Results, S. aureus (fold increase in extracellular AK activity).
The mark [7] stands for this setting: planktonic, cutoff for positive 3-fold increase, read-out: AK-based Prestwick Library Screening Results, A. baumannii (fold increase in extracellular AK activity).
Setting [8] is: planktonic, cutoff for positive 3-fold increase, read-out: AK-based Prestwick Library Screening Results, E. faecium (fold increase in extracellular AK activity).
The mark [9] stands for this setting: planktonic, cutoff for positive 3-fold increase, read-out: AK-based Prestwick Library Screening Results, K. pneumoniae (fold increase in extracellular AK activity).
The mark [10] stands for this setting: 384-well format, cutoff for positive-scoring molecules 3-fold increase, read-out: AK-based Prestwick Library Screening Results, E. coli (increase in extracellular AK activity).
The mark [11] stands for this setting: 384-well format, cutoff for positive-scoring molecules 3-fold increase, read-out: AK-based Prestwick Library Screening Results, E. cloacae (increase in extracellular AK activity).
Setting [12] is: 384-well format, cutoff for positive-scoring molecules 3-fold increase, read-out: AK-based Prestwick Library Screening Results, P. aeruginosa (increase in extracellular AK activity).
Setting [13] is: 384-well format, cutoff for positive-scoring molecules 3-fold increase, read-out: AK-based Prestwick Library Screening Results, S. aureus (increase in extracellular AK activity).
Where [14] appears, read: 384-well format, cutoff for positive-scoring molecules 3-fold increase, read-out: AK-based Prestwick Library Screening Results, A. baumannii (increase in extracellular AK activity).
[15] abbreviates: 384-well format, cutoff for positive-scoring molecules 3-fold increase, read-out: AK-based Prestwick Library Screening Results, E. faecium (increase in extracellular AK activity).
Setting [16] is: 384-well format, cutoff for positive-scoring molecules 3-fold increase, read-out: AK-based Prestwick Library Screening Results, K. pneumoniae (increase in extracellular AK activity).

Counter-ions that a name gives are not always drawn. Like-named read-outs stand apart in the source and are kept apart here.

As to `O=C(CCCN1CC=C(n2c(=O)[nH]c3ccccc32)CC1)c1ccc(F)cc1` [Droperidol], the fold induction at 50 µM came to 0.9 with E. coli (planktonic E. coli, cutoff for positive-scoring molecules 3-fold increase, read-out: AK-based Prestwick Library Screening Results, E. coli (increase in extracellular AK activity)); 1.2 with E. cloacae (planktonic E. cloacae, cutoff for positive-scoring molecules 3-fold increase, read-out: AK-based Prestwick Library Screening Results, E. cloacae (increase in extracellular AK activity)); 0.7 in the assay on P. aeruginosa (planktonic P. aeruginosa, cutoff for positive-scoring molecules 3-fold increase, read-out: AK-based Prestwick Library Screening Results, P. aeruginosa (increase in extracellular AK activity)); 0.9 in assay [1] (planktonic S. aureus, cutoff for positive-scoring molecules 3-fold increase, read-out: AK-based Prestwick Library Screening Results, S. aureus (increase in extracellular AK activity)); 1 in assay [2] (planktonic A. baumannii, cutoff for positive-scoring molecules 3-fold increase, read-out: AK-based Prestwick Library Screening Results, A. baumannii (increase in extracellular AK activity)); 1 in the assay on E. faecium (planktonic E. faecium, cutoff for positive-scoring molecules 3-fold increase, read-out: AK-based Prestwick Library Screening Results, E. faecium (increase in extracellular AK activity)). Further, the fold induction at 50 µM in the assay on K. pneumoniae (planktonic K. pneumoniae, cutoff for positive-scoring molecules 3-fold increase, read-out: AK-based Prestwick Library Screening Results, K. pneumoniae (increase in extracellular AK activity)) came to 0.7.

In the case of `O=C(OCC(O)CO)c1ccccc1Nc1ccnc2cc(Cl)ccc12` (centres unmarked) [Glafenine hydrochloride], the fold induction at 50 µM with E. coli (planktonic E. coli, 384-well, […], read-out: AK-based Prestwick Library Screening Results: E. coli (increase in extracellular AK activity)) was 1.2; with E. cloacae (planktonic E. cloacae, 384-well, […], read-out: AK-based Prestwick Library Screening Results: E. cloacae (increase in extracellular AK activity)), 1.5; in the assay on P. aeruginosa (planktonic P. aeruginosa, 384-well, […], read-out: AK-based Prestwick Library Screening Results: P. aeruginosa (increase in extracellular AK activity)), 1.2; in assay [1] (planktonic S. aureus, 384-well, […], read-out: AK-based Prestwick Library Screening Results: S. aureus (increase in extracellular AK activity)), 1.1; in assay [2] (planktonic A. baumannii, 384-well, […], read-out: AK-based Prestwick Library Screening Results: A. baumannii (increase in extracellular AK activity)), 1.1; in the assay on E. faecium (planktonic E. faecium, 384-well, […], read-out: AK-based Prestwick Library Screening Results: E. faecium (increase in extracellular AK activity)), 1.1. For the same compound, the fold induction at 50 µM in the assay on K. pneumoniae (planktonic K. pneumoniae, 384-well, […], read-out: AK-based Prestwick Library Screening Results: K. pneumoniae (increase in extracellular AK activity)) worked out at 1.

Regarding `CCc1oc2ccccc2c1C(=O)c1cc(Br)c(O)c(Br)c1` [Benzbromarone], the fold induction at 50 µM in the assay with E. coli (setting [3]) is 1.1; in the assay on E. cloacae (setting [4]), 1.4; with P. aeruginosa (setting [5]), 1.5; in assay [1] (setting [6]), 0.4; in assay [2] (setting [7]) it was 1.4; in the assay with E. faecium (setting [8]), 1.2. For the same compound, in the assay with K. pneumoniae (setting [9]), the fold induction at 50 µM amounted to 0.9.

Regarding `CO[C@H]1/C=C/O[C@@]2(C)Oc3c(C)c(O)c4c(O)c(c(/C=N/N5CCN(C)CC5)c(O)c4c3C2=O)NC(=O)/C(C)=C\C=C\[C@H](C)[C@H](O)[C@@H](C)[C@@H](O)[C@@H](C)[C@H](OC(C)=O)[C@@H]1C` [Rifampicin], the fold induction at 50 µM in the assay with E. coli (setting [3]) was determined as 1.3; in the assay on E. cloacae (setting [4]) it was 1.4; with P. aeruginosa (setting [5]), 0.6; in assay [1] (setting [6]), 0.8; in assay [2] (setting [7]), 3; with E. faecium (setting [8]), 0.8. For the same compound, the fold induction at 50 µM in the assay with K. pneumoniae (setting [9]) was 0.7.

For `CNCCC=C1c2ccccc2C=Cc2ccccc21` [Norcyclobenzaprine], the “AK-based Prestwick Library Screening Results, E. coli (increase in extracellular AK activity)” value in the assay with E. coli (planktonic E. coli, cutoff for positive-scoring molecules 3-fold increase) amounted to 6.3. Further, in the assay with E. cloacae (planktonic E. cloacae, cutoff for positive-scoring molecules 3-fold increase), the “AK-based Prestwick Library Screening Results, E. cloacae (increase in extracellular AK activity)” value worked out at 1.3. Moreover, the “AK-based Prestwick Library Screening Results, P. aeruginosa (increase in extracellular AK activity)” value in the assay on P. aeruginosa (planktonic P. aeruginosa, cutoff for positive-scoring molecules 3-fold increase) was 1.0. In assay [1] (planktonic S. aureus, cutoff for positive-scoring molecules 3-fold increase), the “AK-based Prestwick Library Screening Results, S. aureus (increase in extracellular AK activity)” value is 0.6. The “AK-based Prestwick Library Screening Results, A. baumannii (increase in extracellular AK activity)” value in assay [2] (planktonic A. baumannii, cutoff for positive-scoring molecules 3-fold increase) is 1.1. For the same compound, the “AK-based Prestwick Library Screening Results, E. faecium (increase in extracellular AK activity)” value in the assay on E. faecium (planktonic E. faecium, cutoff for positive-scoring molecules 3-fold increase) worked out at 0.8. Further, the “AK-based Prestwick Library Screening Results, K. pneumoniae (increase in extracellular AK activity)” value in the assay with K. pneumoniae (planktonic K. pneumoniae, cutoff for positive-scoring molecules 3-fold increase) is on record as 0.9.

As to `COc1ccccc1OCC(O)COC(N)=O` (centres unmarked) [Methocarbamol], the fold induction at 50 µM in the assay with E. coli (setting [10]) turned out to be 0.9; in the assay with E. cloacae (setting [11]), 1; in the assay on P. aeruginosa (setting [12]), 0.9; in assay [1] (setting [13]) it was 0.8; in assay [2] (setting [14]), 0.9; in the assay with E. faecium (setting [15]), 0.9. Moreover, in the assay on K. pneumoniae (setting [16]), the fold induction at 50 µM amounted to 0.6.

On to `CC(=O)O[C@]1(C(C)=O)CC[C@H]2[C@@H]3C=C(C)C4=CC(=O)CC[C@]4(C)[C@H]3CC[C@@]21C` [Megestrol acetate], for which the fold induction at 50 µM in the assay on E. coli (cutoff for positive-scoring molecules 3-fold increase, read-out: AK-based Prestwick Library Screening Results, E. coli (fold increase in extracellular AK activity)) was 1.1; in the assay with E. cloacae (cutoff for positive-scoring molecules 3-fold increase, read-out: AK-based Prestwick Library Screening Results, E. cloacae (fold increase in extracellular AK activity)) it was 1.6; with P. aeruginosa (cutoff for positive-scoring molecules 3-fold increase, read-out: AK-based Prestwick Library Screening Results, P. aeruginosa (fold increase in extracellular AK activity)) it was 1.2; in assay [1] (cutoff for positive-scoring molecules 3-fold increase, read-out: AK-based Prestwick Library Screening Results, S. aureus (fold increase in extracellular AK activity)), 0.9; in assay [2] (cutoff for positive-scoring molecules 3-fold increase, read-out: AK-based Prestwick Library Screening Results, A. baumannii (fold increase in extracellular AK activity)) it was 1.2; in the assay with E. faecium (cutoff for positive-scoring molecules 3-fold increase, read-out: AK-based Prestwick Library Screening Results, E. faecium (fold increase in extracellular AK activity)) it was 1.2. In addition, the fold induction at 50 µM in the assay on K. pneumoniae (cutoff for positive-scoring molecules 3-fold increase, read-out: AK-based Prestwick Library Screening Results, K. pneumoniae (fold increase in extracellular AK activity)) stood at 1.

With `CC[C@]12CCCN3CCc4c(n(c5ccccc45)[C@@](O)(C(=O)OC)C1)[C@@H]32` [Vincamine], the fold induction at 50 µM in the assay on E. coli (setting [10]) amounted to 0.9; in the assay with E. cloacae (setting [11]), 1.2; in the assay with P. aeruginosa (setting [12]), 1; in assay [1] (setting [13]), 0.7; in assay [2] (setting [14]), 0.9; in the assay on E. faecium (setting [15]) it was 0.9. In the assay with K. pneumoniae (setting [16]), the fold induction at 50 µM was determined as 0.7.
